Laboratory results reported in article PMC11490992 (Microbial Cell Factories, 2024).
Values after ≈ are worked out from the molar mass of the structure shown.

Target: α-glucosidase
Test: in vitro α-glucosidase inhibition assay, triplicate, serial dilutions
Format: biochemical

## CC(C)=CCc1ccc2c(CC#N)c[nH]c2c1 [compound 2, 3-cyanomethyl-6-prenylindole]
  IC50 (μg/mL)^a: 86.21 µg/mL (≈ 384 µM)
